Data set [1] relates to Botryotinia fuckeliana (Botrytis cinerea). Kind of data set: Botryotinia fuckeliana (Botrytis cinerea) / liquid culture (gray mould). The note with it: 72 h, 200 ppm, compared to untreated control, growth inhibition photometrically 3-4 days after application, read-out: disease control. The data set is classed as cell-based.
Data set [2] deals with Fusarium culmorum. Kind of data set: microbe, parasite or virus in culture. The data set is classed as cell-based. The note with it: read-out: disease control.
Data set [3] deals with Glomerella lagenarium (Colletotrichum lagenarium). Kind of data set: Glomerella lagenarium (Colletotrichum lagenarium) / liquid culture (anthracnose). The data set is classed as cell-based. Conditions: Colletotrichum orbiculare; 200 ppm; compared to untreated control; growth inhibition photometrically 3-4 days after application; read-out: disease control.
Data set [4] relates to Monographella nivalis (Microdochium nivale). Kind of data set: Monographella nivalis (Microdochium nivale) / liquid culture (foot rot cereals). It counts as cell-based. Conditions: 200 ppm, compared to untreated control, growth inhibition photometrically 4-5 days after application, read-out: disease control.
In data set [5] the test system is Magnaporthe grisea (Pyricularia oryzae). Kind of data set: microbe, parasite or virus in culture. The data set is classed as cell-based. Conditions: read-out: control of Magnaporthe grisea.
Data set [6] has as its system Fusarium culmorum. The experiment in a line: whole plant or invertebrate. It counts as in vivo, Fusarium culmorum on wheat spikelets cv. Monsun. The note with it: in Triticum aestivum, 144 h, read-out: control of Fusarium culmorum.
Data set [7] deals with Sclerotinia sclerotiorum. Kind of data set: Sclerotinia sclerotiorum / liquid culture (cottony rot). The note with it: read-out: control of Sclerotinia sclerotiorum.
Description: Sclerotinia sclerotiorum/Liquid Culture (Cottony Rot)
Mycelia fragments of a newly grown liquid culture of the fungus are directly mixed into nutrient broth (Vogels broth). After placing a (DMSO) solution of test compound into a microtiter plate (96-well format) the nutrient broth containing the fungal material is added. The test plates are incubated at 24° C. and the inhibition of growth is determined photometrically 3-4 days after application.
Data set [8] relates to Gaeumannomyces graminis. Kind of data set: Gaeumannomyces graminis / liquid culture (take-all of cereals). The data set is classed as cell-based. The note with it: compared to untreated control, 4-5 days after application.
Data set [9] relates to Pyrenophora teres. The experiment in a line: Pyrenophora teres / barley / leaf disc preventative (net blotch). It counts as in vivo, Pyrenophora teres on barley leaf segments cv. Hasso. The note with it: foliar, barley leaf segments, compared to untreated control, 5-7 days after application.

Take `CC(C)[C@@](C)(C#Cc1ccccc1)NC(=O)c1cnc2c(F)cccc2c1` (single isomer, unassigned) [Compound G-7]: the inhibition of growth at 200 ppm in data set [1], in [2], in data set [3] and in [4] was at least 80% each time. For the same compound, the inhibition of growth at 20 ppm in data set [5] and in data set [7] was at least 80% each time. In [6], the pest or weed control at 200 ppm is at least 80%.
`CC(C)(C)C(C#Cc1ccccc1)NC(=O)c1cnc2c(F)cccc2c1` (stereo not drawn) [Compound F-5, N-(1-tert-butyl-3-phenyl-prop-2-ynyl)-8-fluoro-quinoline-3-carboxamide] registered a melting point of 179 to 181 °C. For the same compound, the inhibition of growth at 200 ppm in data set [1] was at least 80%. Besides, the inhibition of growth at 200 ppm in [2] is at least 80%. Besides, in [3], the inhibition of growth at 200 ppm was at least 80%. Further, the inhibition of growth at 200 ppm in data set [4] is at least 80%. The inhibition of growth at 20 ppm in data set [5] is at least 80%. This compound also returned an inhibition of growth at 20 ppm in data set [8] of at least 80%. Further, the inhibition of growth at 20 ppm in [7] was at least 80%.
Compound `CC(C)CC(C)(C#Cc1ccccc1)NC(=O)c1cnc2c(F)cccc2c1` (stereo not drawn) [Compound F-7, N-[1,3-dimethyl-1-(2-phenylethynyl)butyl]-8-fluoro-quinoline-3-carboxamide] gave a melting point of 138 to 141 °C. For the same compound, the inhibition of growth at 200 ppm in data set [1] is at least 80%. Moreover, the inhibition of growth at 200 ppm in data set [2] is at least 80%. Besides, in data set [3], the inhibition of growth at 200 ppm was at least 80%. The inhibition of growth at 200 ppm in [4] is at least 80%. Further, the inhibition of growth at 20 ppm in data set [5] is at least 80%. Also, the pest or weed control at 200 ppm in data set [6] is at least 80%. The compound further registered an inhibition of growth at 20 ppm in data set [8] of at least 80%. In addition, the inhibition of growth at 20 ppm in data set [7] is at least 80%.
The compound `CCC(C)(C#Cc1ccccc1)NC(=O)c1cnc2c(C)cccc2c1` (stereo not drawn) [Compound F-9, N-(1-ethyl-1-methyl-3-phenyl-prop-2-ynyl)-8-methyl-quinoline-3-carboxamide] showed a melting point of 135 to 137 °C. In data set [1], the inhibition of growth at 200 ppm was at least 80%. In addition, the inhibition of growth at 200 ppm in data set [2] is at least 80%. Further, the inhibition of growth at 200 ppm in data set [3] was at least 80%. For the same compound, the inhibition of growth at 200 ppm in data set [4] is at least 80%. The inhibition of growth at 20 ppm in data set [5] is at least 80%. Also, in [6], the pest or weed control at 200 ppm was at least 80%. Also, in [7], the inhibition of growth at 20 ppm is at least 80%.
Compound `CCC(C)(C#Cc1ccccc1)NC(=O)c1cnc2c(C#N)cccc2c1` (stereo not drawn) [Compound F-10, 8-cyano-N-(1-ethyl-1-methyl-3-phenyl-prop-2-ynyl)quinoline-3-carboxamide] yielded a melting point of 172 to 174 °C. Besides, in data set [1], the inhibition of growth at 200 ppm was at least 80%. The inhibition of growth at 200 ppm in [2] is at least 80%. Moreover, the inhibition of growth at 200 ppm in data set [3] is at least 80%. For the same compound, in data set [4], the inhibition of growth at 200 ppm was at least 80%. Besides, the inhibition of growth at 20 ppm in data set [5] is at least 80%. For the same compound, the pest or weed control at 200 ppm in data set [6] was at least 80%. The compound further showed an inhibition of growth at 20 ppm in data set [8] of at least 80%. Also, the inhibition of growth at 20 ppm in data set [7] was at least 80%.
With `CC(C)C(C)(C#Cc1ccccc1F)NC(=O)c1cnc2c(F)cccc2c1` (stereo not drawn) [Compound F-12, 8-fluoro-N-[3-(2-fluorophenyl)-1-isopropyl-1-methyl-prop-2-ynyl]quinoline-3-carboxamide], the inhibition of growth at 200 ppm in [1], in data set [2], in data set [3] and in [4] was at least 80% throughout. Besides, the inhibition of growth at 20 ppm in data set [5], in [8] and in data set [7] was at least 80% each time. Also, the pest or weed control at 200 ppm in data set [6] was at least 80%.
In turn, `CCC(C)(C#Cc1ccccc1C)NC(=O)c1cnc2c(F)cccc2c1` (stereo not drawn) [Compound F-15, N-[1-ethyl-1-methyl-3-(o-tolyl)prop-2-ynyl]-8-fluoro-quinoline-3-carboxamide] had a melting point of 143 to 146 °C. Besides, the inhibition of growth at 200 ppm in [1] was at least 80%. The inhibition of growth at 200 ppm in data set [2] was at least 80%. Besides, in data set [3], the inhibition of growth at 200 ppm is at least 80%. In addition, the inhibition of growth at 200 ppm in data set [4] is at least 80%. Further, the inhibition of growth at 20 ppm in data set [5] was at least 80%. Moreover, the inhibition of growth at 20 ppm in data set [7] is at least 80%.
With `Cc1ccc(C#CC(C)(C)NC(=O)c2cnc3c(F)cccc3c2)cc1` [Compound F-21, N-[1,1-dimethyl-3-(p-tolyl)prop-2-ynyl]-8-fluoro-quinoline-3-carboxamide], the inhibition of growth at 200 ppm in data set [1], in [2], in [3] and in data set [4] was at least 80% each time. In data set [9], this compound displayed a pest or weed control at 200 ppm of at least 80%.
In the case of `Cc1ccc(C#CC(C)(C)NC(=O)c2cnc3c(F)cccc3c2)s1` [Compound F-35, N-[1,1-dimethyl-3-(5-methyl-2-thienyl)prop-2-ynyl]-8-fluoro-quinoline-3-carboxamide], the inhibition of growth at 200 ppm in data set [1], in data set [2] and in [4] was at least 80% throughout. The pest or weed control at 200 ppm in data set [9] is at least 80%.
As to `CC(C)C(C)(C#Cc1ccccc1)NC(=O)c1cnc2c(F)cccc2c1` (stereo not drawn) [Compound F-46, 8-fluoro-N-(1-isopropyl-1-methyl-3-phenyl-prop-2-ynyl)quinoline-3-carboxamide], the melting point fell in the range of 118 to 122 °C. In addition, the inhibition of growth at 200 ppm in [1] is at least 80%. Also, the inhibition of growth at 200 ppm in [2] is at least 80%. Moreover, the inhibition of growth at 200 ppm in data set [3] is at least 80%. Besides, the inhibition of growth at 200 ppm in data set [4] is at least 80%. Also, in data set [5], the inhibition of growth at 20 ppm was at least 80%. The pest or weed control at 200 ppm in data set [6] is at least 80%. In data set [8], this compound yielded an inhibition of growth at 20 ppm of at least 80%.
With `Cc1ccccc1C#CC(C)(C)NC(=O)c1cnc2c(F)cccc2c1` [Compound F-47, N-[1,1-dimethyl-3-(o-tolyl)prop-2-ynyl]-8-fluoro-quinoline-3-carboxamide], the melting point lay within 156 to 160 °C. Further, the inhibition of growth at 200 ppm in data set [1] is at least 80%. Moreover, the inhibition of growth at 200 ppm in [2] was at least 80%. The inhibition of growth at 200 ppm in data set [3] was at least 80%. For the same compound, the inhibition of growth at 200 ppm in data set [4] is at least 80%. Besides, in data set [5], the inhibition of growth at 20 ppm is at least 80%. Also, the pest or weed control at 200 ppm in data set [6] was at least 80%. The compound further registered an inhibition of growth at 20 ppm in data set [8] of at least 80%.
The compound `CC(C)(C#Cc1cccc(C(F)(F)F)c1)NC(=O)c1cnc2c(F)cccc2c1` [Compound F-48, N-[1,1-dimethyl-3-[3-(trifluoromethyl)phenyl]prop-2-ynyl]-8-fluoro-quinoline-3-carboxamide] displayed a melting point of 181 to 184 °C. In data set [1], the inhibition of growth at 200 ppm was at least 80%. The inhibition of growth at 200 ppm in data set [2] is at least 80%. In addition, the inhibition of growth at 200 ppm in [3] is at least 80%. Besides, the inhibition of growth at 200 ppm in data set [4] is at least 80%. In data set [5], the inhibition of growth at 20 ppm was at least 80%. Further, the inhibition of growth at 20 ppm in [8] is at least 80%.
Take `CC(C)(C#Cc1ccccc1)NC(=O)c1cnc2ccccc2c1` [Compound F-49, N-(1,1-dimethyl-3-phenyl-prop-2-ynyl)quinoline-3-carboxamide]: the melting point lay in the range of 136 to 141 °C. Also, the inhibition of growth at 200 ppm in data set [1] was at least 80%. For the same compound, the inhibition of growth at 200 ppm in data set [2] was at least 80%. For the same compound, the inhibition of growth at 200 ppm in data set [3] is at least 80%. Further, the inhibition of growth at 200 ppm in data set [4] was at least 80%. Besides, in [5], the inhibition of growth at 20 ppm was at least 80%. The pest or weed control at 200 ppm in [6] is at least 80%. The inhibition of growth at 20 ppm in data set [8] is at least 80%.
Compound `Cc1nc2c(F)cccc2cc1C(=O)NC(C)(C)C#Cc1ccccc1` [Compound F-50, N-(1,1-dimethyl-3-phenyl-prop-2-ynyl)-8-fluoro-2-methyl-quinoline-3-carboxamide] gave a melting point of 118 to 123 °C. In addition, the inhibition of growth at 200 ppm in [1] is at least 80%. In [2], the inhibition of growth at 200 ppm was at least 80%. For the same compound, the inhibition of growth at 200 ppm in data set [3] is at least 80%. In addition, the inhibition of growth at 20 ppm in data set [5] was at least 80%. The inhibition of growth at 20 ppm in data set [7] was at least 80%.
Consider `Cc1c(C(=O)NC(C)(C)C#Cc2ccccc2)cnc2c(F)cccc12` [Compound F-51, N-(1,1-dimethyl-3-phenyl-prop-2-ynyl)-8-fluoro-4-methyl-quinoline-3-carboxamide], for which the inhibition of growth at 200 ppm in data set [1], in data set [2], in data set [3] and in data set [4] was at least 80% throughout. For the same compound, the inhibition of growth at 20 ppm in [5], in data set [8] and in [7] was at least 80% each time.
Regarding `CC(C)C[C@@](C)(C#Cc1ccccc1)NC(=O)c1cnc2c(F)cccc2c1` [Compound G-5, N-[(1S)-1,3-dimethyl-1-(2-phenylethynyl)butyl]-8-fluoro-quinoline-3-carboxamide], the melting point was 124 to 127 °C. In addition, the inhibition of growth at 200 ppm in data set [1] is at least 80%. Also, the inhibition of growth at 200 ppm in data set [2] is at least 80%. Moreover, the inhibition of growth at 200 ppm in [3] was at least 80%. In [4], the inhibition of growth at 200 ppm is at least 80%. Moreover, the inhibition of growth at 20 ppm in data set [5] is at least 80%. Also, the inhibition of growth at 20 ppm in [8] is at least 80%. Besides, the inhibition of growth at 20 ppm in data set [7] was at least 80%.

The values above are taken from US11178869B2, “Microbiocidal quinoline (thio)carboxamide derivatives” (priority 2017, dated 2021).
